# In patent US11931374B2, “Adenosine receptor modulators for the treatment of circadian rhythm disorders” (OXFORD UNIVERSITY INNOVATION LIMITED, priority 2016, dated 2024):
# How the values were obtained:
# C57Bl/6 mice = test: Phase shifting of circadian activity by drug (running wheel); assay type: in vivo
# Procedure: Animals were housed under a reversed 12:12 LD cycle (400 lux from white LED lamps) with food and water ad libitum. For phase-shifting studies, C57Bl/6 mice were maintained on running wheels in light tight chambers on a 12:12 LD cycle (400 lux from white LED lamps) and injected with drug at the indicated time points. The drugs were formulated in a vehicle consisting of 5% Koliphor-HS15 (Sigma-Aldrich, UK) 5% Cyclodextran (Sigma-Aldrich, UK) in 0.9% saline. This vehicle was warmed to 37° C. and the indicated drugs kept at a 100× stock in DMSO and mixed at the appropriate concentration to be administered at approximately 300 ul intraperitoneal injection (n=6 to 10). Where the time point of injection was in the dark, the procedure was conducted under dim red light. Where measuring phase-shifting, the mice were then placed in DD and allowed to free run for 14 days in DD, running wheel activity data was collected and analysed on Clocklab (Actimetrics, Wilmette, IL). For jet-lag studies, mice were maintained on running wheels in light tight chambers on a 12:12 LD cycle (400 lux from white LED lamps) and injected with drugs as above at ZT6 and the LD cycle was shifted 6 hours in advance. The onset of activity on each day was used to measure phase relative to the LD cycle.
# Phase Shifting: C57Bl/6 male mice (80 days or older) were maintained on running wheels in light tight chambers on a 12:12 LD cycle (100 lux from white LED lamps) on stable entrainment, were released in complete darkness. At set times as indicated in the experiments, the animals received an intraperitoneal injection (300 ul) of drug constituted in sterile saline with 5% Cyclodextrin (Sigma-Aldrich) and 5% Koliphor (Sigma-Aldrich) and then allowed to free run in DD, running wheel activity data were collected and analysed on Clocklab (Actimetrics, Wilmette, IL).
# cJun = cJun mRNA after drug treatment; assay type: cell-based; settings: 10 uM
# Procedure: (§1) Total RNA was extracted using the microRNeasy column method (Qiagen, Hilden, Germany). Quality and quantity of RNA were measured using an Agilent Bioanalyzer and a Nanodrop1000 (Thermo Fisher Scientific, Waltham, MA USA), respectively.
# (§2) RNA samples were prepared as described for microarray hybridisation. cDNA was synthesized with a qScript cDNA synthesis kit (Quanta Biosciences, Gaithersburg, MD), and quantitative PCR (qPCR) was conducted with Sybr green I and an SDS7700 thermal cycler (Applied Biosystems, Foster City, CA). Relative quantification of transcript levels was done as described previously (Peirson et al., Nucleic Acids Res. 2003 Jul. 15; 31(14):e73.). The geometric mean of a minimum of three housekeeping genes was used for normalization (Gapdh, ActB, GusB and Rps9 for example).
# Per2 [1] = test: Per2 mRNA levels in U2OS cells by qPCR; assay type: cell-based
# Procedure: as §1, §2
# Cells from the U2OS (HTB-96) line were obtained, tested and identified. The cells were cultured in T-75 flasks, in Dulbecco's modified Eagle medium (DMEM) supplemented with 10% foetal bovine serum (FBS) and 1% penicillin-streptomycin (P/S) at 37° C. in a humidified atmosphere at 5% CO2. The cells were subcultured every 2 to 4 days in a 1:2 to 1:6 ratio, in accordance with the ATCC recommendations. The cells were counted using a haemocytometer, and their viability in a culture was maintained at above 95%, measured with a Presto Blue exclusion assay according to the manufacturer's specifications. Cells were transfected with siRNAs (typically at 50 nM concentrations, sequences as previously listed), the CRE::Luc (pGL4.29[luc2P/CRE/Hygro] Vector, encoding Luc2P […] under the control of a strong cAMP response element (CRE) promoter containing 3 CRE elements within its sequence; Promega) reporter vector or cAMP-GLOSensor plasmid (Promega) as per manufacturer's instructions using either Lipofectamine RNAimax (Invitrogen) or Lipofectamine3000 (Invitrogen).
# [2] = tested on: Bmal1::Luc reporter U2OS cells; test: Bmal1::Luc reporter U2OS cells circadian rhythm; assay type: cell-based; settings: 10 uM
# CRE::Luc reporter = test: CRE-Luc luciferase assay in U2OS cells; assay type: cell-based
# Procedure: At 60-80% confluence and >90% viability, the U2OS cells in the T-75 flask were washed twice with 6 ml phosphate-buffered saline (PBS) and subsequently treated with 4 ml of TrypLE™ Express trypsin replacement solution for 10 minutes. A Greiner Bio-One 96 Well Plate (white, TC treated), was then seeded at 8000 cells per well. Following 24 hours, the cells were transfected at 50-70% confluency with CRE-luc Vector generated in-house with Viafect transfection reagent at 1:4 ratio (100 ng DNA/well) following manufacturers recommendations.
# 24 hours after transfection, the medium in the 96 well plate was changed to a serum-free medium with 1 mM luciferin. The cells were then incubated in serum starvation conditions for 6-8 hours, this was optimised to yield the greatest signal strength and lowest noise when assayed with forskolin control. Following the incubation period, the CRE-Luc U2OS cells were treated with the appropriate drug and their luminescence values were measured after 6 hours in the BMG FLUOstar OPTIMA Microplate Reader. […] Unless stated otherwise, forskolin was used as a positive control, and 1% DMSO was used as a negative control.
# Per2 [3] = test: Per2 mRNA within the SCN after intraperitoneal injection; assay type: in vivo, mice; settings: 4 h after intraperitoneal injection
# From the text: (§3) SCN Tissue Collection: Animals were housed under a 12:12 LD cycle for 2 weeks with food and water ad libitum. Animals then received either a drug injection with a alteration in the light dark cycle as described in the experiment and at set points following drug administration were sacrificed by cervical dislocation. Sham-treated mice not given a light pulse were dissected at each time point. Brains were removed and placed into a brain matrix (Kent Scientific, Torrington CT, USA). Per2::Luc transgenic animals (as reported in Yoo et al, Proc Natl Acad Sci USA. 2004 Apr. 13; 101(15):5339-46) were obtained from Prof Joseph Takahashi, Northwestern University. […]
# as §1
# as §2, with “The geometric mean of a minimum of three housekeeping genes was used for normalization (Gapdh, ActB, GusB and Rps9 for example).” left out
# SCN electrical activity = test: In vivo recording from SCN electrode implanted animals; settings: intraperitoneal injection, 5 mg/kg
# Per1 = Per1 mRNA within the SCN after intraperitoneal injection; assay type: in vivo, mice; settings: 4 h after intraperitoneal injection
# From the text: as §3, §1
# as §2, with “The geometric mean of a minimum of three housekeeping genes was used for normalization (Gapdh, ActB, GusB and Rps9 for example).” left out
compound,measurement,setting,value
"Nc1nc(-c2ccccc2)c2c(n1)-c1cc(OCCN3CCOCC3)ccc1C2=O [JNJ40255293, 2-amino-8-[2-(4-morpholinyl)ethoxy]-4-phenyl-5H-indeno[1,2-d]pyrimidin-5-one]",phase shift of circadian activity,"C57Bl/6 mice; 5 mg/kg intraperitoneal, 6 h after the onset of light (ZT6), then constant dark",induced a phase advance
same,phase shift of circadian activity,"C57Bl/6 mice; 5 mg/kg, administered at CT16, constant dark",resulted in a phase delay
same,phase shifts compared with other agents (FIG. 9A),C57Bl/6 mice; difference between onset pre and post injection,causes the largest phase shifts
same,cJun mRNA,cJun,Upregulation
same,Per2 transcription,Per2 [1]; 4 h post-drug treatment,significantly increased
same,Per2 mRNA,"Per2 [1]; U2OS cell cultures, 10 uM",Robust increases
same,Per2 mRNA levels,"Per2 [1]; U2OS cells, 30 uM",elevated
same,Per2 mRNA levels / expression,"Per2 [1]; U2OS cells, qPCR, concentration not given",induce the expression of Per1 and Per2
same,period length,[2],increases in period length
same,rhythms after washout of drug,[2],revert to normal rhythms after washout of drug
same,CREB-driven transcription (CRE::Luc reporter),CRE::Luc reporter,does not increase signals from the CRE::Luc reporter
same,Per2 mRNA levels within the SCN,Per2 [3],increase
same,phase of SCN electrical activity,SCN electrical activity,marked phase shift
same,Per1 mRNA levels within the SCN,Per1,increase
